Read-outs that look alike come from different tables or passages of the source. Residues, ends and D or L forms follow the SMILES beside them.
Assays:
[1] = system: B16/F10 pulmonary melanoma metastases; format: in vivo, mouse; settings: mouse, in vivo
Experimental: Metastatic Melanoma Imaging: A pulmonary metastatic melanoma-bearing mouse was used for [^18F]FDG PET imaging 16 days after the cell injection and used for ^111In-DOTA-GlyGlu-CycMSH SPECT/CT imaging on next day (a time interval of 26 h) to compare the difference in detection efficiency between [^18F]FDG and ^111In-DOTA-GlyGlu-CycMSH. The mouse was injected with 35.15 MBq of commercial [^18F]FDG (Biotech, N. Mex.) via the tail vein. At 1 h post-injection, the mouse was anesthetized with 1.5% isoflurane and placed in the prone position near the center of the field of view of small animal PET (LabPET™) (Gamma Medica-Ideas, Sherbrooke, Quebec). A 30-min static scan was acquired, and the image was reconstructed by maximum likelihood estimation method (MLEM). The mouse was returned to the cage for recovery after the ^18F-FDG PET imaging study was completed. The same mouse was injected with 24.05 MBq of ^111In-DOTA-GlyGlu-CycMSH via the tail vein 24 h after the ^18F-FDG PET imaging study. The mouse was anesthetized with 1.5% isoflurane for small animal SPECT/CT (Nano-SPECT/CT®, Bioscan) imaging 2 h post-injection. The 6-min CT imaging was immediately followed by the focused SPECT imaging of lung. The SPECT scans of 24 projections were acquired and total acquisition time was 45 min. After the focused lung imaging, the mouse was sacrificed with CO2 inhalation for whole-body SPECT/CT imaging. The 9-min CT imaging was immediately followed by the SPECT imaging of whole-body. Reconstructed data from SPECT and CT were visualized and co-registered using InVivoScope (Bioscan, Washington D.C.). Necropsy analysis of the mouse was performed to confirm the pulmonary metastatic melanoma lesions after the SPECT/CT imaging studies were completed. To monitor the development of pulmonary melanoma metstases with ^111In-DOTA-GlyGlu-CycMSH, a pulmonary metastatic melanoma-bearing mouse was injected with 10.36 MBq of ^111In-DOTA-GlyGlu-CycMSH through the tail vein for small animal SPECT/CT imaging 20 days after the cell injection. […]

[2] = Stability in mouse serum monitored by RP-HPLC; format: in vitro ADME; settings: 37° C., 24 h incubation
Experimental: Complexation of the Peptide with ^111In: ^111In-DOTA-CycMSH and ^111In-DOTA-GlyGlu-CycMSH were prepared using a 0.5 M NH4OAc-buffered solution at pH 5.4. Briefly, 50 μl of ^111InCl3 (18.5-37.0 MBq in 0.05 M HCl), 10 μl of 1 mg/ml DOTA-CycMSH or DOTA-GlyGlu-CycMSH aqueous solution and 400 μl of 0.5 M NH4OAc (pH 5.4) were added into a reaction vial and incubated at 75° C. for 45 min. After the incubation, 20 μl of 0.5% EDTA aqueous solution was added into the reaction vial to scavenge potential unbound ^111In. The radiolabeled complexes were purified to single species by Waters RP-HPLC (Milford, Mass.) on a Grace Vadyc C-18 reverse phase analytical column (Deerfield, Ill.) using a 20-minute gradient of 16-26% acetonitrile in 20 mM HCl aqueous solution with a flowrate of 1 ml/min. Purified peptide samples were purged with N2 gas for 20 minutes to remove the acetonitrile. The pH of final solution was adjusted to 7.4 with 0.1 N NaOH and normal saline for animal studies. The stability of ^111In-DOTA-CycMSH and ^111In-DOTA-GlyGlu-CycMSH was determined by incubation in mouse serum at 37° C. according to the published procedure (20) for various time periods, and monitored for degradation by RP-HPLC.

[3] = Urinary metabolites by HPLC in B16/F1 melanoma-bearing C57 mice; format: in vivo, mouse; settings: urine, 2 h post-injection
Experimental: Urinary Metabolites of ^111In-DOTA-CycMSH and ^111In-DOTA-GlyGlu-CycMSH: One hundred microliter of HPLC purified ^111In-DOTA-CycMSH (0.74-1.11 MBq, 0.82-1.12 ng) or ^111In-DOTA-GlyGlu-CycMSH (0.74-1.11 MBq, 0.90-1.35 ng) was injected into each B16/F1 murine melanoma-bearing C57 mouse through the tail vein. At 2 h after dose administration, mice were sacrificed and the urine was collected. The radioactive metabolites in the urine were analyzed by injecting aliquots of urine into HPLC. A 20-minute gradient of 16-26% acetonitrile/20 mM HCl was used for the urine analysis.

[4] = system: B16/F1 murine melanoma-bearing C57 mice; test: Biodistribution in B16/F1 murine melanoma-bearing C57 mice; format: in vivo, mouse
Experimental: (§1) Biodistribution Studies: All the animal studies were conducted in compliance with Institutional Animal Care and Use Committee approval. The pharmacokinetics of ^111In-DOTA-CycMSH and ^111In-DOTA-GlyGlu-CycMSH were determined in B16/F1 murine melanoma-bearing C57 female mice (Harlan, Indianapolis, Ind.). C57 mice were inoculated subcutaneously with 1×10^6 B16/F1 murine melanoma cells in the right flank. After 10 days, when the weight of tumors reached approximately 0.2 g, 0.037 MBq of ^111In-DOTA-CycMSH or ^111In-DOTA-GlyGlu-CycMSH was injected into each mouse through the tail vein. Groups of 5 mice were sacrificed at 2, 4 and 24 h post-injection, and tumors and organs of interest were harvested, weighed and counted. Blood values were taken as 6.5% of the whole-body weight. The tumor uptake specificity of ^111In-DOTA-CycMSH and ^111In-DOTA-GlyGlu-CycMSH was determined by blocking tumor uptake with the co-injection of 10 μg (6.07 nmol) of unlabeled NDP-MSH, a linear α-MSH peptide analogue with picomolar affinity for the MC1 receptors present on murine melanoma cells. Statistical analysis was performed using the Student's t-test for unpaired data.

[5] = as above; format: in vivo, mouse; settings: female, C57, mouse, iv, 0.037 MBq, total radioactivity; for tissue uptake: all time points (2, 4, 24 h)
Experimental: as §1

Compound: CCCC[C@@H]1NC(=O)[C@@H](NC(=O)[C@H](CCC(=O)O)NC(=O)CNC(=O)CN2CCN(CC(=O)O)CCN(CC(=O)O)CCN(CC(=O)O)CC2)CCCCNC(=O)[C@H](CC(=O)O)NC(=O)[C@H](C(C)C)NC(=O)[C@@H]2CCCN2C(=O)[C@H](CCCNC(=N)N)NC(=O)CNC(=O)[C@H](Cc2c[nH]c3ccccc23)NC(=O)[C@H](CCCNC(=N)N)NC(=O)[C@@H](Cc2ccccc2)NC(=O)[C@H](Cc2c[nH]cn2)NC(=O)[C@H](CCC(=O)O)NC1=O [^111In-DOTA-GlyGlu-CycMSH, metal not drawn] (HELM PEPTIDE1{[O=C(O)CN1CCN(CC(=O)O)CCN(CC(=O)[*:2])CCN(CC(=O)O)CC1].G.E.K.[Nle].E.H.[dF].R.W.G.R.P.V.D}$PEPTIDE1,PEPTIDE1,4:R3-15:R2$$$V2.0)
- accumulation of activity in normal organs in whole-body image [1]: extremely low except for the kidneys
- stability in mouse serum [2]: stable
- urinary metabolites by RP-HPLC [3]: transformed to two more polar metabolites
- tumor uptake with NDP co-injection as % of the tumor uptake without NDP co-injection ([4]; 10 μg (6.07 nmol) non-radiolabeled NDP co-injection, 2 h after dose administration): 2.6%
- tumor uptake ([4]; 2 h post-injection, tail vein): 10.40±1.40 % ID/g
- kidney uptake higher than 111In-DOTA-ReCCMSH ([4]; 4 h post-injection): 29%
- less renal uptake than 111In-DOTA-CycMSH ([4]; 4 h post-injection): 44%
- renal uptake as % of that of 111In-DOTA-CMSH ([4]; 4 h post-injection): 34%
- tissue uptake ([5]; bone, read-out: bone uptake): < 0.2 %ID/g
- kidney uptake at 24 h ([5]; kidney, 24 h after dose administration): 9.06 ± 1.82 %ID/g
- tissue uptake ([5]; normal organs except the kidneys, read-out: normal organ uptakes except for the kidneys): < 0.8 %ID/g
- tissue uptake at 2 h ([5]; tumor, 2 h post-injection, tail vein): 10.4 ± 1.4 %ID/g
- tissue uptake at 4 h ([5]; tumor, 4 h post-injection, tail vein): 7.4 ± 0.43 %ID/g
- tissue uptake at 24 h ([5]; tumor, 24 h post-injection, tail vein): 2.37 ± 0.28 %ID/g
- dose excreted ([5]; urine, by 2 h post-injection, read-out: injected radioactivity cleared through the urinary system): ~90%

Reference: patent publication US11160887B2, “Compositions for use in diagnosing and treating melanoma, including metastatic melanoma and methods related to same” (UNM RAINFOREST INNOVATIONS, priority 2008, dated 2021)
